This note sets out measurements from PMC8766756, “Insights on Cancer Cell Inhibition, Subcellular Activities, and Kinase Profile of Phenylacetamides Pending 1H-Imidazol-5-One Variants” (Frontiers in Pharmacology, 2022).

Where “and” joins values, the source holds several entries; their conditions need not be identical. Equal values may be shown once.

What all share (experiment): PamChip tyrosine kinase microarray
Common to all, as to type: biochemical
What all share (details): 0.1 µM, HL60 lysate

The target of one assay is T1, Src (P12931) (Homo sapiens, UniProt P12931).
T1 construct: purchased PamGene (PamChip PTK array, Upstream Kinase Analysis)
Put shortly:
(§1)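 HL60 (AML) cell lysate was spiked with compound at 0.001, 0.01, 0.1, 1, 10 and 50 µM, or 2% v/v DMSO as control, then profiled in technical replicates on a tyrosine kinase peptide array of 196 phosphosites. Kinase activity was inferred from peptide-set changes using an upstream kinase tool.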

The target of the next assay is T2, BLK (P51451) (Homo sapiens, UniProt P51451).
T2 construct: purchased PamGene (PamChip PTK array, Upstream Kinase Analysis)
Put shortly: as §1

In another assay the target is T3, EphA8 (P29322) (Homo sapiens, UniProt P29322).
T3 construct: purchased PamGene (PamChip PTK array, Upstream Kinase Analysis)
T3 sequence (P29322 28-1005): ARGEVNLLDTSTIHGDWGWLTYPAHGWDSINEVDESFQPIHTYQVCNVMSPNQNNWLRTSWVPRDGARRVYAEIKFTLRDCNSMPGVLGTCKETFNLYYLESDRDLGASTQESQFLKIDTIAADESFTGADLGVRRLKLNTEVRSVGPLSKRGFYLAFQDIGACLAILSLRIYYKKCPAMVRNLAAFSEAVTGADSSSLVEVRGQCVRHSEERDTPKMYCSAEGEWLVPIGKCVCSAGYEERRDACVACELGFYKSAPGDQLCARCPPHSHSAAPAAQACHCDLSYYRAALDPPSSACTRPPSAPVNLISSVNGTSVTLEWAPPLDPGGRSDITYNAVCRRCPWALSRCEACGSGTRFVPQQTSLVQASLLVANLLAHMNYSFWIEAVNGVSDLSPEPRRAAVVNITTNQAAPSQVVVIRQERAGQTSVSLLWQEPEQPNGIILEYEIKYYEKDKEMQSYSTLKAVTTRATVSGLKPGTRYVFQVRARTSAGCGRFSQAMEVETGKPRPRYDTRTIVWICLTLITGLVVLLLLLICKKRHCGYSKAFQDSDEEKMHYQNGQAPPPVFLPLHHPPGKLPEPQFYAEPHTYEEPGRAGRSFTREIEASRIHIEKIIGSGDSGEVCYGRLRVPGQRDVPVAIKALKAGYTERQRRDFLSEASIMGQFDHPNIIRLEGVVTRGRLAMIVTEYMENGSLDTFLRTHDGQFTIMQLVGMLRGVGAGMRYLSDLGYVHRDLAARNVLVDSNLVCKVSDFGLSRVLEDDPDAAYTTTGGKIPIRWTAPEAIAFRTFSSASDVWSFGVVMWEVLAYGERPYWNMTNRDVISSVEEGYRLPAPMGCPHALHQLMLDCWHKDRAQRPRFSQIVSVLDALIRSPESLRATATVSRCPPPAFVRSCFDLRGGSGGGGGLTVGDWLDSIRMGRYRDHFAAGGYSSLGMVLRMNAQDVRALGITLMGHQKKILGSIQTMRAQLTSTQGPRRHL
Put shortly:
as §1

In a further assay the target is T4, FGFR3 (P22607) (Homo sapiens, UniProt P22607).
T4 construct: purchased PamGene (PamChip PTK array, Upstream Kinase Analysis)
In outline:
as §1

For the next assay, the target named is T5, TXK (P42681) (Homo sapiens, UniProt P42681).
T5 construct: purchased PamGene (PamChip PTK array, Upstream Kinase Analysis)
T5 sequence (P42681 1-527): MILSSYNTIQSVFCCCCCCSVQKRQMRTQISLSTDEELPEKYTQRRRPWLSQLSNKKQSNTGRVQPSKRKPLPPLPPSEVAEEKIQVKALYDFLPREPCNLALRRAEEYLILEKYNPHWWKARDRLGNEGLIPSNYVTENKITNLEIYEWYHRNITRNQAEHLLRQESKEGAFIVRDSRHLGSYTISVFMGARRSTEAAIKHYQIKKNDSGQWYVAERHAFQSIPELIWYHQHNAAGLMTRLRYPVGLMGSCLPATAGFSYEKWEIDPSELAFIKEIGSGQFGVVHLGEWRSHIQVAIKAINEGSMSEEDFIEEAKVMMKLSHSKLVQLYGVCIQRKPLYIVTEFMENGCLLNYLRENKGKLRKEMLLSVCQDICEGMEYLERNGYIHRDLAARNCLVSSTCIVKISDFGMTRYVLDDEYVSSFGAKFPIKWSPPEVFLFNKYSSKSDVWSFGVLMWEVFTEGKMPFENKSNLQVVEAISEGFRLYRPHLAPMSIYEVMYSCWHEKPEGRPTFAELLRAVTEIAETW
Put shortly:
as §1

T4 sequence (P22607 23-806): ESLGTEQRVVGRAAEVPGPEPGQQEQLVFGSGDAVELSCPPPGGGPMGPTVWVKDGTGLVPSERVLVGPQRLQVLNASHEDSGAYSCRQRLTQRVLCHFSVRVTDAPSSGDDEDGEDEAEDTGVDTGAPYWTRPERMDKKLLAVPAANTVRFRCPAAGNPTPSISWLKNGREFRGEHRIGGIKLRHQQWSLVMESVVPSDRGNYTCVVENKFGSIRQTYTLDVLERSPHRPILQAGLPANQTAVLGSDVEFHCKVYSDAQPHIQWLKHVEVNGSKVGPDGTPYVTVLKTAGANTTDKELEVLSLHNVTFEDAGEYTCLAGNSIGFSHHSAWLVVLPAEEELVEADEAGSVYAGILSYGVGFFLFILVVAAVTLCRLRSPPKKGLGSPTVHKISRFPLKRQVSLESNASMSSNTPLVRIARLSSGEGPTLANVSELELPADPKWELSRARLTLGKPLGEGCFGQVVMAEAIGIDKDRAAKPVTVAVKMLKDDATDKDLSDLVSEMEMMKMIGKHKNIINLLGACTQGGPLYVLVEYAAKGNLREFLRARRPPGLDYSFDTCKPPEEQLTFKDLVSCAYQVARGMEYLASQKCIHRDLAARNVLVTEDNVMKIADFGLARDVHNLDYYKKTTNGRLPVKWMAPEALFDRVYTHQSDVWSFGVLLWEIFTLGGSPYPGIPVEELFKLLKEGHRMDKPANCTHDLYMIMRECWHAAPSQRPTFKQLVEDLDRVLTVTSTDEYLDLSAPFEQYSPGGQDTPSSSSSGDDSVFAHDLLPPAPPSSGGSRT
T2 sequence (P51451 whole entry): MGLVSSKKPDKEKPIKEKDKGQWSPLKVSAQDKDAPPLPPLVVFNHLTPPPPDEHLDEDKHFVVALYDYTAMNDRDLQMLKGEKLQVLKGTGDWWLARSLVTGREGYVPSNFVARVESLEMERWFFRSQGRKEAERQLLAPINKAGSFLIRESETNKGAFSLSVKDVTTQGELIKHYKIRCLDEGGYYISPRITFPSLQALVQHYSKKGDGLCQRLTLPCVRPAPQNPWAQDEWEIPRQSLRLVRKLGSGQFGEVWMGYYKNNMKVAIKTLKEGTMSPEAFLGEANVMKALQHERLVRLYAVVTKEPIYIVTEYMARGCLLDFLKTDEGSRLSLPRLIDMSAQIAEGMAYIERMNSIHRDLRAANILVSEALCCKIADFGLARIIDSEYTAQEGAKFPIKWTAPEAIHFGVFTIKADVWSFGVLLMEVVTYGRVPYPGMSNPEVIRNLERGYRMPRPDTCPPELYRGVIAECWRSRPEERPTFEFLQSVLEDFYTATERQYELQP
T1 sequence (P12931 whole entry): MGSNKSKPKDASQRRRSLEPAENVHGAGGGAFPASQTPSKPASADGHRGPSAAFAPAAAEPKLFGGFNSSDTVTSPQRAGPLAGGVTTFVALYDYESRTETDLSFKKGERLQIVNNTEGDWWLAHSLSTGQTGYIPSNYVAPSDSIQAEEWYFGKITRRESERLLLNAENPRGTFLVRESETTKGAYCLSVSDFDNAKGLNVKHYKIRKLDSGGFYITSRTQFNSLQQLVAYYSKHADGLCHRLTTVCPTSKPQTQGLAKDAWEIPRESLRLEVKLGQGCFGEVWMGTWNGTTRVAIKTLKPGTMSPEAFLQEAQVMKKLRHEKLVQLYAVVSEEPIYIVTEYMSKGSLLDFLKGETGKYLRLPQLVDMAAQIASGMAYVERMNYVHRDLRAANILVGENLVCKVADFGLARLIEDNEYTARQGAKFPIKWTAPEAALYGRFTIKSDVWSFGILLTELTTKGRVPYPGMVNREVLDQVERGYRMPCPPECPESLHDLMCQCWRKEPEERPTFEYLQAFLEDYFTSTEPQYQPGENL

In the case of `COc1ccc(/C=C2\N=C(C)N(c3ccc(CC(=O)NCc4ccccc4)cc3)C2=O)cc1` [Compound 4c, (Z)-N-Benzyl-2-(4-(4-(4-methoxybenzylidene)-2-methyl-5-oxo-4,5-dihydro-1H-imidazol-1-yl)phenyl)acetamide], the “Mean Significance Score” value at Src (P12931) came out at 2.048; on BLK (P51451) it was 1.433; on EphA8 (P29322), 1.989; at FGFR3 (P22607), 1.984; on TXK (P42681), 2.048. Moreover, the “Mean Specificity Score” value on Src (P12931) was 0.05941; on BLK (P51451), 0.07394; on EphA8 (P29322), 0.1251; on FGFR3 (P22607), 0.3218; at TXK (P42681), 0.6377. Also, the “Mean Final score (Kinase score)” value is 2.16 and 2.164 at Src (P12931) (listed as KIM-161); 1.48 at BLK (P51451); 2.201 at EphA8 (P29322); 2.271 on FGFR3 (P22607); 2.68 on TXK (P42681) (listed as KIM-161). For the same compound, the “Mean Kinase Statistic” value on BLK (P51451) was -1.015; on EphA8 (P29322), -0.925; at FGFR3 (P22607), -1.175.
